Reference: ChEMBL document CHEMBL1157121, “Diterpenoids from the feces of Trogopterus xanthipes” (J Nat Prod, 2010)

How the values were obtained:
Format in all cases: functional, cell-based
HepG2 = assay: Cytotoxicity against human HepG2 cells after 48 hrs by MTT assay; conditions: HepG2, 48 h
HL-60 = assay: Cytotoxicity against human HL60 cells after 48 hrs by MTT assay; conditions: HL-60, 48 h
U-937 = assay: Cytotoxicity against human U937 cells after 48 hrs by MTT assay; conditions: U-937, 48 h
Jurkat = assay: Cytotoxicity against human Jurkat cells after 48 hrs by MTT assay

Row | Compound | IC50 (HepG2) | IC50 (HL-60) | IC50 (U-937) | IC50 (Jurkat)
1 | CC(C)c1c(O)ccc2c1CC[C@H]1C(C)(C)[C@@H](O)CC[C@]21C | > 40 µM | 24.3 µM | 24.7 µM | > 40 µM
2 | CC(C)c1cc2c(cc1O)[C@@]1(C)CCCC(C)(C)[C@@H]1CC2 [FERRUGINOL] | > 40 µM | > 40 µM | 19.7 µM | 35.1 µM
3 | CC1=C2C=C[C@]34C[C@](C)(CC[C@@H]3[C@@]2(C)CCC1=O)C(=O)O4 [TROGOPTEROID A] | > 40 µM | > 40 µM | > 40 µM | > 40 µM
4 | CC(C)c1c(O)ccc2c1CC[C@H]1[C@@](C)(CO)C(=O)C=C[C@]21C [TROGOPTEROID G] | > 40 µM | > 40 µM | > 40 µM | > 40 µM
5 | C=C[C@@]1(C)CC[C@H]2C(=CC[C@H]3C(C)(C)[C@@H](O)CC[C@]23C)C1 [ISOPIMARANE] | > 40 µM | > 40 µM | > 40 µM | > 40 µM
6 | CC(C)c1c(O)ccc2c1CC[C@H]1[C@@](C)(CO)C(=O)CC[C@]21C [TROGOPTEROID D] | > 40 µM | > 40 µM | > 40 µM | > 40 µM
7 | CC[C@@]1(O)C(=O)OCc2c1cc1n(c2=O)Cc2cc3cc(O)ccc3nc2-1 [HYDROXYCAMPTOTHECIN] | 3.7 µM | 0.04 µM | 0.11 µM | 0.03 µM
8 | C=C[C@]1(C)C=C2CC[C@H]3C(C)(C)C(=O)CC[C@]3(C)[C@H]2CC1 | > 40 µM | > 40 µM | > 40 µM | > 40 µM
9 | C=C[C@]1(C)C[C@]2(O)CC[C@H]3C(C)(C)C(=O)CC[C@]3(C)[C@H]2CC1=O [TROGOPTEROID B] | > 40 µM | > 40 µM | > 40 µM | > 40 µM
10 | CC(C)c1cc2c(cc1O)CC[C@H]1C(C)(C)CCC[C@]21C [SEMPERVIROL] | > 40 µM | > 40 µM | > 40 µM | > 40 µM
11 | C=C[C@]1(C)CC2(O)CC[C@H]3C(C)(C)C(=O)C=C[C@]3(C)[C@H]2CC1=O (stereo partly specified) [TROGOPTEROID C] | > 40 µM | > 40 µM | > 40 µM | > 40 µM
12 | C=C[C@@]1(C)CC[C@H]2C(=CC[C@H]3C(C)(C)C(=O)CC[C@]23C)C1 | 32.9 µM | > 40 µM | > 40 µM | > 40 µM
13 | CC(C)c1ccc2c(c1O)C[C@@H](O)[C@H]1[C@@](C)(CO)CCC[C@]21C [MACROPHYNIN E] | > 40 µM | > 40 µM | > 40 µM | > 40 µM
14 | CC(C)c1c(O)ccc2c1C[C@@H](O)[C@H]1C(C)(C)C(=O)CC[C@]21C [TROGOPTEROID E] | > 40 µM | > 40 µM | > 40 µM | > 40 µM
15 | C=C[C@@]1(C)CCC2=C(CC[C@H]3C(C)(C)[C@@H](O)CC[C@]23C)C1 | > 40 µM | > 40 µM | > 40 µM | > 40 µM
16 | CC(C)c1cc2c(cc1O)C[C@@H](O)[C@H]1[C@@](C)(CO)CCC[C@]21C [TROGOPTEROID F] | > 40 µM | > 40 µM | > 40 µM | > 40 µM
17 | C=C[C@@]1(C)CC[C@H]2[C@@](O)(CC[C@H]3[C@@](C)(CO)CCC[C@@]32C)C1 [AKHDARDIOL] | > 40 µM | > 40 µM | > 40 µM | > 40 µM
18 | C=C[C@]1(C)C=C2CC[C@H]3[C@H](C)C(=O)CC[C@]3(C)[C@H]2CC1 | > 40 µM | > 40 µM | > 40 µM | > 40 µM
19 | C=C[C@@]1(C)CC[C@H]2[C@@](O)(CC[C@H]3C(C)(C)C(=O)CC[C@@]32C)C1 | > 40 µM | > 40 µM | > 40 µM | > 40 µM
